From ChEMBL document CHEMBL5108030, “Structure activity relationships leading to the identification of the indirect activator of AMPK, R419” (Bioorg Med Chem, 2022)
The source made the active and inactive calls. No cut-off for these calls is given here.

Assays:
[1] = target: AMP-activated protein kinase, AMPK; experiment: Activation of AMPK in human HepG2 cells assessed as increase in ACC phosphorylation at Ser79 incubated for 1 hr; assay type: cell-based
[2] = target: AMP-activated protein kinase, AMPK; experiment: Activation of AMPK in human HepG2 cells assessed as reduction in mitochondrial ATP production incubated for 1 hr; assay type: cell-based
[3] = Microsomal stability in human liver microsomes assessed as half life; assay type: ADME, Microsome
Cytochrome P450 3A4 [4] = target: T1, Cytochrome P450 3A4 (Homo sapiens, UniProt P08684); experiment: Inhibition of CYP3A4 (unknown origin) in presence of NADPH; assay type: ADME
T1 sequence (P08684 whole entry): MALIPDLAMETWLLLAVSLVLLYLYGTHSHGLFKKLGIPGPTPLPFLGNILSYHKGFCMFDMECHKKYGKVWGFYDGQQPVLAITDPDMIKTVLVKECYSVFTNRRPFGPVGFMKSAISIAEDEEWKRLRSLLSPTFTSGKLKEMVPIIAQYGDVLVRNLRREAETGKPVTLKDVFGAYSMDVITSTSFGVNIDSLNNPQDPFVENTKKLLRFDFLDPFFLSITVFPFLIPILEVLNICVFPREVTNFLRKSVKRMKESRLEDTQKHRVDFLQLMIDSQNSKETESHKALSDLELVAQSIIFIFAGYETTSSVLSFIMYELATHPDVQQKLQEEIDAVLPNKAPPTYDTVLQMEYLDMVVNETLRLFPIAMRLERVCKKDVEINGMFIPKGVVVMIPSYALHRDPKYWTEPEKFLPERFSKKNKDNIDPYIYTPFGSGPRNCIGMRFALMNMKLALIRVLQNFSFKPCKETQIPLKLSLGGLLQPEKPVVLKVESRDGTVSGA

Cytochrome P450 3A4 [5] = target: T1, Cytochrome P450 3A4; experiment: Inhibition of CYP3A4 (unknown origin); assay type: ADME
hERG (KCNH2) = hERG (KCNH2) (Homo sapiens, UniProt Q12809); experiment: Inhibition of human ERG at 3 uM; assay type: toxicity
Chain of hERG (KCNH2) (Q12809 whole entry): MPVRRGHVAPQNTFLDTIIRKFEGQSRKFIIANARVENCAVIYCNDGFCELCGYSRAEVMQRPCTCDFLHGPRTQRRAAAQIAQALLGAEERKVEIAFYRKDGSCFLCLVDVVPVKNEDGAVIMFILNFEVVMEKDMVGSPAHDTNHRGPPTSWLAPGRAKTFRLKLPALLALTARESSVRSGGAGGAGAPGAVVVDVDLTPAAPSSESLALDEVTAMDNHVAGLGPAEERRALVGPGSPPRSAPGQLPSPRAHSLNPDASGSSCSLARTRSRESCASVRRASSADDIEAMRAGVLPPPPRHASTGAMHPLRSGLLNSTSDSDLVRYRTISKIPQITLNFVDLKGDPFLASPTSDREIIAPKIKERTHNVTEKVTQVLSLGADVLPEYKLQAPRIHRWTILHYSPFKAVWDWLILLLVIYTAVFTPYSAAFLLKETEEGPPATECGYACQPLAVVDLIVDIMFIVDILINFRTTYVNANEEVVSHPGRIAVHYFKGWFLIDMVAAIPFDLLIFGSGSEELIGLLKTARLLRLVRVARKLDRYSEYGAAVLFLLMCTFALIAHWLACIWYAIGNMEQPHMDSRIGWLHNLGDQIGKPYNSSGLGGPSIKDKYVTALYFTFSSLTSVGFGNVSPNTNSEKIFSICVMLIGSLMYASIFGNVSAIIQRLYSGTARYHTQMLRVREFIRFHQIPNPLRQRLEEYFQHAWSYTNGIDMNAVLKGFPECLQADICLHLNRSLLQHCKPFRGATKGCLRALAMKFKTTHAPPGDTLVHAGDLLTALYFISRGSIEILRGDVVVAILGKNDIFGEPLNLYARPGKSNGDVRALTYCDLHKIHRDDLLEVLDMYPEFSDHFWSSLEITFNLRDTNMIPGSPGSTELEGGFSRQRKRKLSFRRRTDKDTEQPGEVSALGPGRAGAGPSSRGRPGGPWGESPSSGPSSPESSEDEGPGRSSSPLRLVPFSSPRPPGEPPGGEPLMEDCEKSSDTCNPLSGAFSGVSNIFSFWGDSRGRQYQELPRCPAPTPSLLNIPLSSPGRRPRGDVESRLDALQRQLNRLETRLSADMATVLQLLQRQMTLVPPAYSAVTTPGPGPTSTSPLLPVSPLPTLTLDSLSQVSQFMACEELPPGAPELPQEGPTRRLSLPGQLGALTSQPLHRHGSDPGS

[6] = Clearance in rat at 1 mg/kg,iv measured upto 10 hrs; assay type: ADME, organism-based; settings: in vivo
[7] = Half life in rat at 1 mg/kg,iv measured upto 10 hrs; assay type: ADME, organism-based; settings: in vivo
[8] = Volume of distribution at steady state in rat at 1 mg/kg,iv measured upto 10 hrs; assay type: ADME, organism-based; settings: in vivo, read-out: Vdss
[9] = AUC in rat at 5 mg/kg,po measured upto 10 hrs; assay type: ADME, organism-based; set-up: time < 10 hrs, dose 5 mg/kg, route po; settings: in vivo
[10] = Oral bioavailability in rat at 5 mg/kg measured upto 10 hrs; assay type: ADME, organism-based; settings: in vivo
[11] = Drug concentration in diet-induced obesity model of C57BL/6J mouse at 100 mg/kg,po measured after 10 days; assay type: ADME, organism-based; settings: in vivo, time 10 day, read-out: Drug uptake
[12] = Drug concentration in diet-induced obesity model of C57BL/6J mouse at 200 mg/kg,po measured after 10 days; assay type: ADME, organism-based; settings: in vivo, time 10 day, read-out: Drug uptake
[13] = Drug concentration in high fat diet-induced obesity model of C57BL/6J mouse at 100 mg/kg,po measured after 10 days; assay type: ADME, organism-based; settings: in vivo, time 10 day, read-out: Drug uptake
[14] = Drug concentration in C57BL/6J mouse at 5 mg/kg,po measured after 10 days; assay type: ADME, organism-based; settings: in vivo, time 10 day, read-out: Drug uptake
[15] = AUC in diet-induced obesity model of C57BL/6J mouse at 100 mg/kg,po measured after 10 days; assay type: ADME, organism-based; set-up: time 10 day, dose 100 mg/kg, route po; settings: in vivo, 240 h
[16] = AUC in diet-induced obesity model of C57BL/6J mouse at 200 mg/kg,po measured after 10 days; assay type: ADME, organism-based; set-up: time 10 day, dose 200 mg/kg, route po; settings: in vivo, 240 h
[17] = AUC in high fat diet-induced obesity model of C57BL/6J mouse at 100 mg/kg,po measured after 10 days; assay type: ADME, organism-based; set-up: dose 100 mg/kg, time 10 day, route po; settings: in vivo, 240 h
[18] = AUC in C57BL/6J mouse at 5 mg/kg,po measured after 10 days; assay type: ADME, organism-based; set-up: time 10 day, dose 5 mg/kg, route po; settings: in vivo, 240 h
Mus musculus [19] = experiment: Hypoglycemic activity in high fat diet-induced obesity mouse model assessed as improvement in glucose tolerance at 200 mg/kg,po for 4 weeks by OGTT; assay type: functional, organism-based
Mus musculus [20] = experiment: Hypoglycemic activity in high fat diet-induced obesity mouse model assessed as decrease in AUC blood glucose at 200 mg/kg,po for 4 weeks by OGTT; assay type: functional, organism-based
A549 = experiment: Antiproliferative activity against human A549 cells assessed as cell growth inhibition incubated for 48 hrs by DAPI staining assay; assay type: functional, cell-based; settings: A549, 48 h
NCI-H1299 = experiment: Antiproliferative activity against human NCI-H1299 cells assessed as cell growth inhibition incubated for 48 hrs by DAPI staining assay; assay type: functional, cell-based; settings: NCI-H1299, 48 h

- EC50 [1]: 0.031 µM
- IC50 [2]: 0.00282 µM
- half-life [3]: 1.18 h
- IC50 (Cytochrome P450 3A4 [4]): > 10 µM
- IC50 (Cytochrome P450 3A4 [5]): > 10 µM
- clearance [6]: 150 mL/min/kg
- half-life [7]: 2.7 h
- Vd [8]: 15.1 L/kg
- AUC at 10 h [9]: 256 ng·h/mL
- bioavailability [10]: 46%
- concentration at 240 h [11]: 84 ng/mL
- concentration at 240 h [12]: 140 ng/mL
- concentration at 240 h [13]: 64 ng/mL
- concentration at 240 h [14]: 440 ng/mL
- AUC [15]: 1339 ng·h/kg
- AUC [16]: 2429 ng·h/kg
- AUC [17]: 1283 ng·h/kg
- AUC [18]: 937 ng·h/kg
- IC50 (A549): > 20 µM
- IC50 (NCI-H1299): > 20 µM
Structure (SMILES): COc1ccc(C(=O)C2CCN(C(=O)c3ccc(C(=O)NC4CCN(Cc5ccc(C#N)cc5)CC4)cn3)CC2)cc1
- inhibition at 3 µM (hERG (KCNH2)): 61%
- Activity (Mus musculus [19]): Active
- Activity (Mus musculus [20]): Active
